Experimental data from patent US9139570B2, “Solid forms of an antiviral compound” (priority 2012, dated 2015).
Values joined by “and” are separate entries in the source; they are usually repeats but may differ in a detail not shown here. Identical values can stand only once. Like-named read-outs stand apart in the source and are kept apart here.

How the values were obtained:
[1] = Slurry test in water; assay type: physicochemical
Excerpt: The source of water is believed to be moisture in the air during material transfer.

[2] = Dynamic vapor sorption (DVS) hygroscopicity; assay type: physicochemical; settings: for moisture uptake / weight gain (DVS): at 90% relative humidity
[3] = Photostability of solid forms, photoexposure 0.9 M Lux-hrs, HPLC analysis; assay type: physicochemical
Excerpt: FIG. 6 compares the photodegradation behaviors of amorphous Compound I (vertical stripes), Compound I Form II (horizontal stripes), and a partially amorphous hydrochloride salt of Compound I (diagonal stripes) during photoexposure at 0.9 M Lux-hrs. The leftmost group of bars represents the overall decrease in HPLC % AN of these three forms of Compound I. The middle group of bars represents the formation of a primary photodegradation impurity resulting from each form of Compound I. The rightmost group of bars similarly represents the formation of a secondary photodegradation impurity that eluted on HPLC at relative retention time (RRT) 1.67.
HPLC analyses of the samples compared the amounts of photodegradation products in each sample. […] For example, Form II of Compound I gave rise to the lowest (2.24% AN) amount of photodegradation in this experiment.
The middle group and rightmost group of bars depict the amounts of two of the major photodegradation impurities formed after the three solid forms of Compound I were photoexposed.

[4] = Dissolution rate / kinetic solubility in water at pH 3
[5] = Solubility of Compound I over a greater pH range; settings: aqueous buffer
[6] = Stable form screen (slurry in solvents, XRPD); assay type: physicochemical; settings: 2 weeks
Method: Approximately 15-60 mg of amorphous (1-{3-[6-(9,9-difluoro-7-{2-[5-(2-methoxycarbonylamino-3-methyl-butyryl)-5-aza-spiro[2.4]hept-6-yl]-3H-imidazol-4-yl}-9H-fluoren-2-yl)-1H-benzoimidazol-2-yl]-2-aza-bicyclo[2.2.1]heptane-2-carbonyl}-2-methyl-propyl)-carbamic acid (HPLC purity of 99.3%) were weighed and transferred to a vial equipped with a mini magnetic stir bar. […] The slurry was allowed to stir for two weeks at room temperature (˜22° C.) and examined periodically.
After two weeks, a sample of 300 μL of the slurry was removed from the vial, transferred to a centrifuge filter (Costar, 0.45 micron) and centrifuged at 1000 rpm for 2 minutes. The solid in the wet cake form were analyzed using XRPD analysis (PANalytical X'Pert PRO X-ray powder diffractometer). This diffractometer uses Cu-Kα radiation at a wavelength of 1.54178 Å, and it operates under reflection mode. Scan range is from 2 to 40 degree 2 theta. The step size is 0.0080 at a scan speed of 0.13°/s, which gives about 5 min per scan. After air drying the small sample, XRPD analysis was performed again to monitor any change in the diffraction pattern between the wet and dry material. Thermogravimetric analysis (TGA) was run on the saturated solution to determine the solubility of the equilibrating solids in the solvent when the solid appeared to be crystalline.

For `COC(=O)N[C@H](C(=O)N1CC2(CC2)C[C@H]1c1ncc(-c2ccc3c(c2)C(F)(F)c2cc(-c4ccc5nc([C@@H]6[C@H]7CC[C@H](C7)N6C(=O)[C@@H](NC(=O)OC)C(C)C)[nH]c5c4)ccc2-3)[nH]1)C(C)C` [Compound I Form VIII, (1-{3-[6-(9,9-difluoro-7-{2-[5-(2-methoxycarbonylamino-3-methyl-butyryl)-5-aza-spiro[2.4]hept-6-yl]-3H-imidazol-4-yl}-9H-fluoren-2-yl)-1H-benzoimidazol-2-yl]-2-aza-bicyclo[2.2.1]heptane-2-carbonyl}-2-methyl-propyl)-carbamic acid methyl ester], the “stability in water (slurry test)” value [1] was “stable in water” and the “water absorbed (DVS)” value [2] was “roughly one equivalent of water”.

In the case of `COC(=O)N[C@H](C(=O)N1CC2(CC2)C[C@H]1c1ncc(-c2ccc3c(c2)C(F)(F)c2cc(-c4ccc5nc([C@@H]6[C@H]7CC[C@H](C7)N6C(=O)[C@@H](NC(=O)OC)C(C)C)[nH]c5c4)ccc2-3)[nH]1)C(C)C` [Compound I Form V, (1-{3-[6-(9,9-difluoro-7-{2-[5-(2-methoxycarbonylamino-3-methyl-butyryl)-5-aza-spiro[2.4]hept-6-yl]-3H-imidazol-4-yl}-9H-fluoren-2-yl)-1H-benzoimidazol-2-yl]-2-aza-bicyclo[2.2.1]heptane-2-carbonyl}-2-methyl-propyl)-carbamic acid methyl ester ethyl acetate solvate], the “hygroscopicity by DVS (words)” value ([2]; listed as Form V) is reported as “non-hygroscopic”.

In the case of `COC(=O)N[C@H](C(=O)N1CC2(CC2)C[C@H]1c1ncc(-c2ccc3c(c2)C(F)(F)c2cc(-c4ccc5nc([C@@H]6[C@H]7CC[C@H](C7)N6C(=O)[C@@H](NC(=O)OC)C(C)C)[nH]c5c4)ccc2-3)[nH]1)C(C)C` [Compound I Form XV, (1-{3-[6-(9,9-difluoro-7-{2-[5-(2-methoxycarbonylamino-3-methyl-butyryl)-5-aza-spiro[2.4]hept-6-yl]-3H-imidazol-4-yl}-9H-fluoren-2-yl)-1H-benzoimidazol-2-yl]-2-aza-bicyclo[2.2.1]heptane-2-carbonyl}-2-methyl-propyl)-carbamic acid methyl ester], the “hygroscopicity by DVS (words)” value ([2]; listed as Form XV) is reported as “non-hygroscopic”.

With `COC(=O)N[C@H](C(=O)N1CC2(CC2)C[C@H]1c1ncc(-c2ccc3c(c2)C(F)(F)c2cc(-c4ccc5nc([C@@H]6[C@H]7CC[C@H](C7)N6C(=O)[C@@H](NC(=O)OC)C(C)C)[nH]c5c4)ccc2-3)[nH]1)C(C)C` [Compound I Form III, (1-{3-[6-(9,9-difluoro-7-{2-[5-(2-methoxycarbonylamino-3-methyl-butyryl)-5-aza-spiro[2.4]hept-6-yl]-3H-imidazol-4-yl}-9H-fluoren-2-yl)-1H-benzoimidazol-2-yl]-2-aza-bicyclo[2.2.1]heptane-2-carbonyl}-2-methyl-propyl)-carbamic acid methyl ester] the “moisture uptake / weight gain (DVS)” value ([2]; listed as Form III) was “less than 0.3%” and the “hygroscopicity by DVS (words)” value ([2]; listed as Form III) was “nonhygroscopic”.

In the case of `COC(=O)N[C@H](C(=O)N1CC2(CC2)C[C@H]1c1ncc(-c2ccc3c(c2)C(F)(F)c2cc(-c4ccc5nc([C@@H]6[C@H]7CC[C@H](C7)N6C(=O)[C@@H](NC(=O)OC)C(C)C)[nH]c5c4)ccc2-3)[nH]1)C(C)C` [Compound I Form II, (1-{3-[6-(9,9-difluoro-7-{2-[5-(2-methoxycarbonylamino-3-methyl-butyryl)-5-aza-spiro[2.4]hept-6-yl]-3H-imidazol-4-yl}-9H-fluoren-2-yl)-1H-benzoimidazol-2-yl]-2-aza-bicyclo[2.2.1]heptane-2-carbonyl}-2-methyl-propyl)-carbamic acid methyl ester monoacetone solvate], the “photostability compared with amorphous Compound I and partially amorphous HCl salt” value [3] is reported as “best photostability among the three forms compared”, the “overall decrease in HPLC % AN (amount of photodegradation)” value ([3]; solid) is reported as 2.24 % AN and the dissolution rate ranking [4] is reported as “slowest dissolution rate”.

Compound `COC(=O)N[C@H](C(=O)N1CC2(CC2)C[C@H]1c1ncc(-c2ccc3c(c2)C(F)(F)c2cc(-c4ccc5nc([C@@H]6[C@H]7CC[C@H](C7)N6C(=O)[C@@H](NC(=O)OC)C(C)C)[nH]c5c4)ccc2-3)[nH]1)C(C)C` [Compound I, (1-{3-[6-(9,9-difluoro-7-{2-[5-(2-methoxycarbonylamino-3-methyl-butyryl)-5-aza-spiro[2.4]hept-6-yl]-3H-imidazol-4-yl}-9H-fluoren-2-yl)-1H-benzoimidazol-2-yl]-2-aza-bicyclo[2.2.1]heptane-2-carbonyl}-2-methyl-propyl)-carbamic acid methyl ester] has a solubility [5] of less than 1 µg/mL.

For `COC(=O)N[C@H](C(=O)N1CC2(CC2)C[C@H]1c1ncc(-c2ccc3c(c2)C(F)(F)c2cc(-c4ccc5nc([C@@H]6[C@H]7CC[C@H](C7)N6C(=O)[C@@H](NC(=O)OC)C(C)C)[nH]c5c4)ccc2-3)[nH]1)C(C)C` [amorphous Compound I], the “hygroscopicity by DVS (words)” value [2] was “hygroscopic”, the “moisture induced phase transformation” value ([2]; any humidity level) was “does not undergo moisture induced phase transformation” and the “moisture uptake / weight gain (DVS)” value [2] was 5.4% and 5.6%.

For `COC(=O)N[C@H](C(=O)N1CC2(CC2)C[C@H]1c1ncc(-c2ccc3c(c2)C(F)(F)c2cc(-c4ccc5nc([C@@H]6[C@H]7CC[C@H](C7)N6C(=O)[C@@H](NC(=O)OC)C(C)C)[nH]c5c4)ccc2-3)[nH]1)C(C)C` [Compound I D-tartrate, (1-{3-[6-(9,9-difluoro-7-{2-[5-(2-methoxycarbonylamino-3-methyl-butyryl)-5-aza-spiro[2.4]hept-6-yl]-3H-imidazol-4-yl}-9H-fluoren-2-yl)-1H-benzoimidazol-2-yl]-2-aza-bicyclo[2.2.1]heptane-2-carbonyl}-2-methyl-propyl)-carbamic acid D-tartrate], the “physical form by XRPD after slurry in various solvents” value [6] was “physical form did not change” and the “moisture uptake / weight gain (DVS)” value [2] was “less than 3%”.
